Among the data in PubChem BioAssay AID328 (DTP/NCI, 2004) are T/C values, retold here.

Several values for one entry are separate records, joined by “and”; a condition that tells them apart may be missing. Equal values may be shown once. Toxic doses and inconclusive results are not listed.

This test relates to BDF1 mice, P388 leukemia ip, median survival T/C. As to the kind of experiment: NCI In Vivo Anticancer Drug Screen. Data for tumor model P388 Leukemia (intraperitoneal) in B6D2F1 (BDF1) mice. The settings on record: endpoint: median survival time, higher = longer survival. Put shortly:
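Mice carrying the transplantable tumour receive compound or vehicle. Survival is followed in each arm, and the treated measure is divided by the vehicle measure.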

[1] abbreviates: dose: 100.0 mg/kg/injection, schedule: Q01DX009 (ip), vehicle: saline with Tween-80.
Setting [2] is: dose: 200.0 mg/kg/injection, schedule: Q01DX009 (ip), vehicle: saline with Tween-80.
Where [3] appears, read: dose: 400.0 mg/kg/injection, schedule: Q01DX009 (ip), vehicle: saline with Tween-80.
The mark [4] stands for this setting: dose: 33.0 mg/kg/injection, schedule: Q04DX003 (ip), vehicle: saline with Tween-80.
[5] abbreviates: dose: 50.0 mg/kg/injection, schedule: Q04DX003 (ip), vehicle: saline with Tween-80.
[6] abbreviates: dose: 75.0 mg/kg/injection, schedule: Q04DX003 (ip), vehicle: saline with Tween-80.
The mark [7] stands for this setting: dose: 100.0 mg/kg/injection, schedule: Q04DX003 (ip), vehicle: saline sonified.
Setting [8] is: dose: 200.0 mg/kg/injection, schedule: Q04DX003 (ip), vehicle: saline sonified.
Where [9] appears, read: dose: 100.0 mg/kg/injection, schedule: Q04DX003 (ip), vehicle: saline.
Setting [10] is: dose: 200.0 mg/kg/injection, schedule: Q04DX003 (ip), vehicle: saline.
Setting [11] is: dose: 50.0 mg/kg/injection, schedule: Q01DX009 (ip), vehicle: saline with Tween-80.
Setting [12] is: dose: 50.0 mg/kg/injection, schedule: Q04DX003 (ip), vehicle: saline.

Regarding `CC[C@@]1(O)C(=O)OCc2c1cc1n(c2=O)Cc2cc3ccccc3nc2-1`, the T/C runs as follows: (dose: 0.8 mg/kg/injection, schedule: Q01DX009 (ip), vehicle: saline with Tween-80) 170 % of control; (dose: 1.5 mg/kg/injection, schedule: Q01DX009 (ip), vehicle: saline with Tween-80) 195 % of control; (dose: 2.5 mg/kg/injection, schedule: Q04DX003 (ip), vehicle: saline with Tween-80) 161 % of control; (dose: 3.0 mg/kg/injection, schedule: Q01DX009 (ip), vehicle: saline with Tween-80) 183 % of control; (dose: 3.75 mg/kg/injection, schedule: Q04DX003 (ip), vehicle: saline with Tween-80) 176 % of control; (dose: 4.0 mg/kg/injection, schedule: Q04DX003 (ip), vehicle: saline with Tween-80) 200 % of control. Also, the T/C (dose: 6.0 mg/kg/injection, schedule: Q04DX003 (ip), vehicle: saline with Tween-80) is 233 % of control and the T/C (dose: 9.0 mg/kg/injection, schedule: Q04DX003 (ip), vehicle: saline with Tween-80) was 250 % of control.
Regarding `COc1ccc(Br)cc1/C=N/N=C/c1cc(Br)ccc1OC`, the T/C under setting [1] was 95 % of control, the T/C under setting [2] is 95 % of control and the T/C under setting [3] was 95 % of control.
Take `Cc1nc(N)c2nc(SCc3ccc(Cl)cc3)c(N)nc2n1`: the T/C is, setting by setting: (dose: 200.0 mg/kg/injection, schedule: Q04DX003 (ip), vehicle: saline with Tween-80) 86 % of control; (dose: 400.0 mg/kg/injection, schedule: Q04DX003 (ip), vehicle: saline with Tween-80) 97 % of control.
For `S=P(NCCNP(=S)(N1CC1)N1CC1)(N1CC1)N1CC1`, the T/C under setting [4] is 121 % of control, the T/C under setting [5] was 256 % of control and the T/C under setting [6] is 121 % of control.
`CCCCCCCCCCC(O)CN1CCN(c2ccc(C)cc2)CC1` (configuration not stated): the T/C is, setting by setting: under setting [1], 100 % of control; under setting [7], 100 % of control; (dose: 176.0 mg/kg/injection, schedule: Q04DX003 (ip), vehicle: saline with Tween-80) 90 % of control; under setting [2], 100 % of control; under setting [8], 115 % of control; (dose: 264.0 mg/kg/injection, schedule: Q04DX003 (ip), vehicle: saline with Tween-80) 90 % of control. Moreover, the T/C under setting [3] was 90 % of control.
Regarding `C#CCSc1ncnc2nc[nH]c12`, the T/C reads like this: under setting [9], 100 % of control; under setting [10], 100 % of control.
Turning to `c1ccc2c(c1)-c1cccc3cccc-2c13`, the T/C reads like this: under setting [11], 98 % of control; under setting [1], 102 % of control; under setting [2], 100 % of control.
Take `CC(C)C[CH2][Pb]([Cl])([CH2]CC(C)C)[CH2]CC(C)C`: the T/C is 104 % of control (dose: 0.12 mg/kg/injection, schedule: Q01DX009 (ip), vehicle: Klucel (hydroxypropylcellulose) (HPC)); 106 % of control (dose: 0.25 mg/kg/injection, schedule: Q01DX009 (ip), vehicle: Klucel (hydroxypropylcellulose) (HPC)); 109 % of control (dose: 0.5 mg/kg/injection, schedule: Q01DX009 (ip), vehicle: Klucel (hydroxypropylcellulose) (HPC)); 120 % of control (dose: 1.0 mg/kg/injection, schedule: Q01DX009 (ip), vehicle: Klucel (hydroxypropylcellulose) (HPC)).
For `Cc1ccc(S(=O)(=O)N=S2CCCC2)cc1`, the T/C by setting is: (dose: 100.0 mg/kg/injection, schedule: Q04DX003 (ip), vehicle: Klucel (hydroxypropylcellulose) (HPC)) 100 % of control; (dose: 200.0 mg/kg/injection, schedule: Q04DX003 (ip), vehicle: Klucel (hydroxypropylcellulose) (HPC)) 95 % of control; (dose: 400.0 mg/kg/injection, schedule: Q04DX003 (ip), vehicle: Klucel (hydroxypropylcellulose) (HPC)) 100 % of control.
On to `CC1(C)N=C(N)N=C(N)N1c1ccc(OCCOc2ccc(NC(=O)CBr)cc2)cc1`, for which the T/C (dose: 2.5 mg/kg/injection, schedule: Q01DX009 (ip), vehicle: saline with Tween-80) was 95 % of control; the T/C (dose: 5.0 mg/kg/injection, schedule: Q01DX009 (ip), vehicle: saline with Tween-80) was 112 % of control; the T/C under setting [1] was 172 % of control; the T/C (dose: 100.0 mg/kg/injection, schedule: Q01DX009 (ip), vehicle: saline) was 230 % of control; the T/C under setting [7] was 165 % of control and 170 % of control; the T/C (dose: 150.0 mg/kg/injection, schedule: Q01DX009 (ip), vehicle: saline with Tween-80) is 218 % of control. In addition, the T/C (dose: 150.0 mg/kg/injection, schedule: Q04DX003 (ip), vehicle: saline sonified) is 165 % of control; the T/C (dose: 200.0 mg/kg/injection, schedule: Q01DX009 (ip), vehicle: saline) was 90 % of control; the T/C under setting [8] was 200 % of control; the T/C (dose: 400.0 mg/kg/injection, schedule: Q04DX003 (ip), vehicle: saline sonified) was 245 % of control.
In the case of `O=C(Nc1cc(Cl)ccc1Cl)c1ccc(C(=O)Nc2cc(Cl)ccc2Cl)cc1`, the T/C runs as follows: under setting [1], 94 % of control; under setting [2], 91 % of control; under setting [3], 110 % of control.
With `CC(=O)Nc1ccc(N2CCN=N2)cc1`, the T/C (dose: 12.5 mg/kg/injection, schedule: Q01DX009 (ip), vehicle: saline) is 110 % of control; the T/C (dose: 25.0 mg/kg/injection, schedule: Q01DX009 (ip), vehicle: saline) was 95 % of control; the T/C (dose: 50.0 mg/kg/injection, schedule: Q01DX009 (ip), vehicle: saline) is 105 % of control; the T/C (dose: 75.0 mg/kg/injection, schedule: Q01DX009 (ip), vehicle: Klucel (hydroxypropylcellulose) (HPC)) is 104 % of control.
In the case of `CC(C)(C)c1cccc(C(C)(C)C)c1OC(=O)NS(=O)(=O)c1ccccc1`, the T/C runs as follows: (dose: 12.5 mg/kg/injection, schedule: Q04DX003 (ip), vehicle: saline) 111 % of control; (dose: 25.0 mg/kg/injection, schedule: Q04DX003 (ip), vehicle: saline) 105 % of control; under setting [12], 100 % of control; (dose: 75.0 mg/kg/injection, schedule: Q04DX003 (ip), vehicle: Klucel (hydroxypropylcellulose) (HPC)) 104 % of control; (dose: 115.0 mg/kg/injection, schedule: Q04DX003 (ip), vehicle: Klucel (hydroxypropylcellulose) (HPC)) 104 % of control.
In the case of `CC1(C)C=C(C(N)=O)C(C)(C)N1O`, the T/C was 100 % of control (dose: 100.0 mg/kg/injection, schedule: Q01DX001 (ip), vehicle: Klucel (hydroxypropylcellulose) (HPC)); 88 % of control (dose: 200.0 mg/kg/injection, schedule: Q01DX001 (ip), vehicle: Klucel (hydroxypropylcellulose) (HPC)); 96 % of control (dose: 400.0 mg/kg/injection, schedule: Q01DX001 (ip), vehicle: Klucel (hydroxypropylcellulose) (HPC)).
With `NC(CSC(c1ccccc1)(c1ccccc1)c1ccc(Cl)cc1)C(=O)O` (configuration not stated), the T/C by setting is: under setting [4], 190 % of control; under setting [11], 272 % of control; under setting [5], 190 % of control; under setting [6], 272 % of control.
Take `CCO/C=C/C=C1C(=O)N(C)C(=O)N(C)C1=O`: the T/C (dose: 50.0 mg/kg/injection, schedule: Q01DX009 (ip), vehicle: other) was 122 % of control.
In the case of `O/N=c1\cc(-c2ccccc2)oc2ccccc12`, the T/C is 95 % of control (dose: 3.13 mg/kg/injection, schedule: Q01DX009 (ip), vehicle: saline with Tween-80); 95 % of control (dose: 6.25 mg/kg/injection, schedule: Q01DX009 (ip), vehicle: saline with Tween-80); 112 % of control (dose: 12.5 mg/kg/injection, schedule: Q01DX009 (ip), vehicle: saline with Tween-80); 123 % of control (dose: 25.0 mg/kg/injection, schedule: Q01DX009 (ip), vehicle: saline with Tween-80).
Turning to `CC1OC(OC2CC(O)C3(CO)C4C(O)CC5(C)C(C6=CC(=O)OC6)CCC5(O)C4CCC3(O)C2)C(O)C(O)C1O` (configuration not stated), the T/C is 90 % of control (dose: 1.5 mg/kg/injection, schedule: Q01DX010 (ip), vehicle: saline) and 90 % of control (dose: 3.0 mg/kg/injection, schedule: Q01DX010 (ip), vehicle: saline).
Turning to `NCCCCS(=O)(=O)Nc1ccc(Nc2c3ccccc3nc3cc([N+](=O)[O-])ccc23)cc1`, the T/C by setting is: (dose: 2.93 mg/kg/injection, schedule: Q04DX003 (ip), vehicle: saline) 122 % of control; (dose: 33.0 mg/kg/injection, schedule: Q04DX003 (ip), vehicle: saline) 154 % of control; under setting [12], 154 % of control; (dose: 75.0 mg/kg/injection, schedule: Q04DX003 (ip), vehicle: saline) 172 % of control; under setting [9], 161 % of control; under setting [10], 161 % of control.
